Data reported in ChEMBL document CHEMBL3994598, “Silychristin: Skeletal Alterations and Biological Activities” (J Nat Prod, 2016).

Legend:
HL-60 = assay: Cytotoxicity against human HL60 cells at 0.0003 to 100 uM after 48 hrs by ATPlite assay; type: cell-based; conditions: hl-60, 48 h
[1] = Cytotoxicity against human primary prostate mesenchymal cells at 0.0003 to 100 uM after 48 hrs by ATPlite assay; type: cell-based; conditions: primary prostate mesenchymal cell
HepG2 = assay: Cytotoxicity against human HepG2 cells at 0.0003 to 100 uM after 48 hrs by ATPlite assay; type: cell-based; conditions: hepg2, 48 h
MCF7 = assay: Cytotoxicity against human MCF7 cells at 0.0003 to 100 uM after 48 hrs by ATPlite assay; type: cell-based; conditions: mcf7, 48 h
[2] = Antiradical activity assessed as gallic acid equivalents of Foline-Ciocalteu reagent reducing capacity at 1 mM preincubated for 5 mins followed by Na2CO3 addition measured after 90 mins
TERT-RPE1 = assay: Cytotoxicity against human RPE1 cells at 0.0003 to 100 uM after 48 hrs by ATPlite assay; type: cell-based; conditions: tert-rpe1, 48 h
MDA-MB-231 = assay: Cytotoxicity against human MDA-MB-231 cells at 0.0003 to 100 uM after 48 hrs by ATPlite assay; type: cell-based; conditions: mda-mb-231, 48 h
[3] = Partition coefficient, logP of the compound in octan-1-ol and phosphate buffer at pH 7.4 at 25 degC after 2 hrs by UV-vis spectrometer; type: physicochemical; conditions: octan-1-ol/phosphate buffer
CAL-51 = assay: Cytotoxicity against human CAL51 at 0.0003 to 100 uM after 48 hrs by ATPlite assay; type: cell-based; conditions: cal-51, 48 h
Liver = assay: Antioxidant activity against tert-butyl hydroperoxide-induced lipoperoxidation in rat liver microsomal membranes incubated for 60 mins by TBARS assay; type: functional, cell membranes, Microsomal Membrane; conditions: 1 h
K562 = assay: Cytotoxicity against human K562 cells at 0.0003 to 100 uM after 48 hrs by ATPlite assay; type: cell-based; conditions: k562, 48 h
PC-3 = assay: Cytotoxicity against human PC3 cells at 0.0003 to 100 uM after 48 hrs by ATPlite assay; type: cell-based; conditions: pc-3, 48 h
[4] = Antioxidant activity assessed as trolox equivalent of ABTS radical scavenging activity at 100 uM incubated for >= 5 mins; type: functional
[5] = Antioxidant activity assessed as DPPH radical scavenging activity after 30 mins; type: functional
BJ = assay: Cytotoxicity against human BJ cells at 0.0003 to 100 uM after 48 hrs by ATPlite assay; type: cell-based

| logD at 2 h [3] | IC50 (Liver) [µM] | IC50 [5] [µM] | SMILES | Activity (HL-60) | Activity [1] | Activity (HepG2) | Activity (MCF7) | Activity [2] [equiv] | Activity (TERT-RPE1) | Activity (MDA-MB-231) | Activity (CAL-51) | Activity (K562) | Activity (PC-3) | Activity [4] [equiv] | Activity (BJ) |
| --- | --- | --- | --- | --- | --- | --- | --- | --- | --- | --- | --- | --- | --- | --- | --- |
| -0.24 | 6.43 | 3.56 | COc1cc(-c2oc3c(O)cc(-c4oc5cc(O)cc(O)c5c(=O)c4O)cc3c2C)ccc1O | Toxic | Toxic | Toxic | Toxic | 2.13 | Toxic | Toxic | Toxic | Toxic | Toxic | 1.43 | Toxic |
| -0.37 | 12.6 | 43 | COc1cc([C@@H]2Oc3c(O)cc([C@@H]4CC(=O)c5c(O)cc(O)cc5O4)cc3[C@H]2CO)ccc1O | Toxic | Toxic | Toxic | Toxic | 1.24 | Toxic | Toxic | Toxic | Toxic | Toxic | 0.77 | Toxic |
| -1.01 | 5.45 | 4.88 | COc1cc([C@@H]2Oc3c(O)cc(-c4oc5cc(O)cc(O)c5c(=O)c4O)cc3[C@H]2CO)ccc1O | Toxic | Toxic | Toxic | Toxic | 3.06 | Toxic | Toxic | Toxic | Toxic | Toxic | 1.79 | Toxic |
| -0.74 | 4.12 | 17.9 | COc1cc(-c2oc3c(O)cc([C@H]4Oc5cc(O)cc(O)c5C(=O)[C@@H]4O)cc3c2C)ccc1O | Toxic | Toxic | Toxic | Toxic | 1.74 | Toxic | Toxic | Toxic | Toxic | Toxic | 0.99 | Toxic |
|  | 67 | 553 | COc1cc(C2Oc3cc([C@H]4Oc5cc(O)cc(O)c5C(=O)[C@@H]4O)ccc3OC2CO)ccc1O (mixture of isomers) [SILIBININ] |  |  |  |  | 0.92 |  |  |  |  |  | 0.47 |  |
|  |  |  | CC[C@@]1(O)C(=O)OCc2c1cc1n(c2=O)Cc2cc3ccccc3nc2-1 [CAMPTOTHECIN] | Toxic | Toxic | Toxic | Toxic |  | Toxic | Toxic | Toxic | Toxic | Toxic |  | Toxic |
|  | 13 | 9.32 | COc1cc(C2Oc3cc(-c4oc5cc(O)cc(O)c5c(=O)c4O)ccc3OC2CO)ccc1O (stereo not drawn) [DEHYDROSILYLBIN] | Toxic | Toxic | Toxic | Toxic | 1.29 | Toxic | Toxic | Toxic | Toxic | Toxic | 0.56 | Toxic |
| -0.47 | 36.7 | 53.1 | COc1cc([C@@H]2Oc3c(O)ccc([C@H]4Oc5cc(O)cc(O)c5C(=O)[C@@H]4O)c3[C@H]2CO)ccc1O [ISOSILYCHRISTIN] | Non-Toxic | Non-Toxic | Non-Toxic | Non-Toxic | 1.74 | Non-Toxic | Non-Toxic | Non-Toxic | Non-Toxic | Non-Toxic | 0.65 | Non-Toxic |
| -0.39 | 10.3 | 19 | COc1cc(C2Oc3c(O)cc([C@H]4Oc5cc(O)cc(O)c5C(=O)[C@@H]4O)cc3C2CO)ccc1O (stereo partly drawn) [SILICRISTIN] | Non-Toxic | Non-Toxic | Non-Toxic | Non-Toxic | 1.49 | Non-Toxic | Non-Toxic | Non-Toxic | Non-Toxic | Non-Toxic | 1.09 | Non-Toxic |
|  |  |  | COc1cc([C@H]2Oc3cc([C@H]4Oc5cc(O)cc(O)c5C(=O)[C@@H]4O)ccc3O[C@@H]2CO)ccc1O [SILYBIN A] | Toxic | Toxic | Toxic | Toxic |  | Toxic | Toxic | Toxic | Toxic | Toxic |  | Toxic |
|  |  |  | COc1cc([C@@H]2Oc3cc([C@H]4Oc5cc(O)cc(O)c5C(=O)[C@@H]4O)ccc3O[C@H]2CO)ccc1O [SILYBIN B] | Toxic | Toxic | Toxic | Toxic |  | Toxic | Toxic | Toxic | Toxic | Toxic |  | Toxic |
